According to ChEMBL document CHEMBL1201862, “PubChem BioAssay data set” (2004):
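Step 1: Grow cells in 96-well plates. Step 2: Expose to compound for 48 hours at 5 concentrations. Step 3: Interpolate endpoints linearly; if unreached, use highest concentration. GI50 = concentration required for 50% inhibition of growth.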 Calls of active or inactive are those of the source. Cut-off read from the data, not from the text of the source: active = GI50 up to about 1.1 µM and inactive = higher.

Assays:
Test in all cases: NCI anticancer screen, dose series, 48 h
NCI-H460 = test system: NCI-H460
Malme-3M = test system: Malme-3M
OVCAR-4 = test system: OVCAR-4
OVCAR-3 = test system: OVCAR-3
SK-MEL-5 = test system: SK-MEL-5
UO-31 = test system: UO-31
EKVX = test system: EKVX
IGROV-1 = test system: IGROV-1
HCT-15 = test system: HCT-15
A498 = test system: A498
Hs-578T = test system: Hs-578T
MOLT-4 = test system: MOLT-4
KM12 = test system: KM12
HCC 2998 = test system: HCC 2998
HOP-92 = test system: HOP-92
HT-29 = test system: HT-29
SK-MEL-2 = test system: SK-MEL-2
BT-549 = test system: BT-549
ACHN = test system: ACHN

SMILES | GI50 (NCI-H460) | GI50 (Malme-3M) | GI50 (OVCAR-4) | GI50 (OVCAR-3) | GI50 (SK-MEL-5) | GI50 (UO-31) | GI50 (EKVX) | GI50 (IGROV-1) | GI50 (HCT-15) [µM] | GI50 (A498) | GI50 (Hs-578T) | GI50 (MOLT-4) | GI50 (KM12) | GI50 (HCC 2998) | GI50 (HOP-92) | GI50 (HT-29) | GI50 (SK-MEL-2) | GI50 (BT-549) | GI50 (ACHN)
O=C(O)/C=C/c1c2ccc(=O)c(O)c-2oc2c(O)c(O)ccc12 | > 100 µM (inactive) | > 100 µM (inactive) | 30.3 µM (inactive) | 45 µM (inactive) | 54 µM (inactive) | 33.9 µM (inactive) | 24.9 µM (inactive) | 82.6 µM (inactive) | 61.9 | > 100 µM (inactive) | 58.6 µM (inactive) | 18.9 µM (inactive) | 25.3 µM (inactive) | > 100 µM (inactive) | > 100 µM (inactive) | 63.7 µM (inactive) | 55.1 µM (inactive) | 83.9 µM (inactive) | 30.8 µM (inactive)
Cc1nnc2sc(-c3ccc(-c4ccccc4Cl)o3)nn12 | 35.1 µM (inactive) | 47.3 µM (inactive) | 31.8 µM (inactive) | 27 µM (inactive) | 20.9 µM (inactive) | 33.7 µM (inactive) | 33 µM (inactive) | 40.6 µM (inactive) | 24.9 | 37.2 µM (inactive) | 55.7 µM (inactive) | 19 µM (inactive) | 35.2 µM (inactive) | 21.8 µM (inactive) | 40.2 µM (inactive) | 34.4 µM (inactive) | 26.1 µM (inactive) | 24 µM (inactive) | 48.4 µM (inactive)
CC(=O)/C(=C\Nc1c(C)n(C)n(C)c1=O)C(=O)c1ccccc1 | > 50 µM (inactive) | > 50 µM (inactive) | > 50 µM (inactive) | > 50 µM (inactive) | > 50 µM (inactive) | > 50 µM (inactive) | > 50 µM (inactive) | > 50 µM (inactive) | > 50 | > 50 µM (inactive) | > 50 µM (inactive) | > 50 µM (inactive) |  | > 50 µM (inactive) | 26.5 µM (inactive) | > 50 µM (inactive) | > 50 µM (inactive) | > 50 µM (inactive) | > 50 µM (inactive)
CCc1c(-c2ccc(OC)cc2)c(=O)oc2cc(O)ccc12 | 23.9 µM (inactive) | 25.5 µM (inactive) | 33.8 µM (inactive) | 28.4 µM (inactive) | 14.8 µM (inactive) | 19.9 µM (inactive) | 29.4 µM (inactive) | 42.4 µM (inactive) | 25.9 | 22.6 µM (inactive) | 30.7 µM (inactive) | 16 µM (inactive) | 37.2 µM (inactive) | 72.3 µM (inactive) | 75.9 µM (inactive) | 40.7 µM (inactive) | > 100 µM (inactive) | 25.1 µM (inactive) | 27.7 µM (inactive)
COc1cc2c3cc1Oc1c(OC)c(OC)cc4c1C(Cc1ccc(O)c(c1)-c1cc(ccc1OC)CC3N(C)CC2)N(C)CC4 (stereo unspecified) | 16 µM (inactive) | 18.2 µM (inactive) | 29.4 µM (inactive) | 21.6 µM (inactive) | 14.8 µM (inactive) | 13.9 µM (inactive) | 25.6 µM (inactive) | 22.1 µM (inactive) | 6.07 | 23.2 µM (inactive) | 21.3 µM (inactive) | 11.8 µM (inactive) | 17.5 µM (inactive) | 17.2 µM (inactive) | 20.2 µM (inactive) | 6.92 µM (inactive) | 19.5 µM (inactive) | 19.7 µM (inactive) | 15.8 µM (inactive)
CC[C@@]1(O)C(=O)OCc2c1cc1n(c2=O)Cc2c-1nc1ccccc1c2/C=N\NC(=O)C1CCCN1 (stereo partly specified) | 0.266 µM (active) | 1.79 µM (inactive) | 19.6 µM (inactive) | 4.42 µM (inactive) | 0.238 µM (active) | 0.457 µM (active) | 9.55 µM (inactive) | 5.2 µM (inactive) | 1.31 | 0.435 µM (active) | 22.5 µM (inactive) | 0.221 µM (active) | 3.11 µM (inactive) | 1.98 µM (inactive) | 0.601 µM (active) | 1.15 µM (inactive) | 11.8 µM (inactive) | 1.49 µM (inactive) | 0.0283 µM (active)
CCCCCCCCCCCCCCCCCCNc1ccn(C2OC(COP(=O)(O)OCC3OC(n4cc(F)c(NCCCCCCCCCCCCCCCCCC)nc4=O)CC3O)C(O)C2O)c(=O)n1 (stereo unspecified) | > 100 µM (inactive) | 42.6 µM (inactive) | > 100 µM (inactive) | > 100 µM (inactive) | > 100 µM (inactive) | > 100 µM (inactive) | > 100 µM (inactive) | > 100 µM (inactive) | > 100 | 25.8 µM (inactive) | > 100 µM (inactive) | > 100 µM (inactive) | > 100 µM (inactive) | 63.5 µM (inactive) | 19.3 µM (inactive) | > 100 µM (inactive) | > 100 µM (inactive) | > 100 µM (inactive) | > 100 µM (inactive)
O=C(O)c1ccccc1C1CCCc2c1[nH]c1ccccc21 (stereo unspecified) | 69.7 µM (inactive) | 98.9 µM (inactive) | 41.3 µM (inactive) | 83.4 µM (inactive) | 36.5 µM (inactive) | 58.5 µM (inactive) | 20.3 µM (inactive) | 31.5 µM (inactive) | 44.4 | 30.2 µM (inactive) | 86.9 µM (inactive) | 27.2 µM (inactive) | 36.7 µM (inactive) | > 100 µM (inactive) | 24 µM (inactive) | 61.4 µM (inactive) | 91.6 µM (inactive) | 83.6 µM (inactive) | 58.5 µM (inactive)
